Results on 20 molecules are retold here after ChEMBL document CHEMBL4619821, “Bioinspired Hybrid Fluorescent Ligands for the FK1 Domain of FKBP52” (J Med Chem, 2020).

The target of data set [1] is T1, Peptidyl-prolyl cis-trans isomerase FKBP4 (Homo sapiens, UniProt Q02790).
T1 sequence (Q02790 whole entry): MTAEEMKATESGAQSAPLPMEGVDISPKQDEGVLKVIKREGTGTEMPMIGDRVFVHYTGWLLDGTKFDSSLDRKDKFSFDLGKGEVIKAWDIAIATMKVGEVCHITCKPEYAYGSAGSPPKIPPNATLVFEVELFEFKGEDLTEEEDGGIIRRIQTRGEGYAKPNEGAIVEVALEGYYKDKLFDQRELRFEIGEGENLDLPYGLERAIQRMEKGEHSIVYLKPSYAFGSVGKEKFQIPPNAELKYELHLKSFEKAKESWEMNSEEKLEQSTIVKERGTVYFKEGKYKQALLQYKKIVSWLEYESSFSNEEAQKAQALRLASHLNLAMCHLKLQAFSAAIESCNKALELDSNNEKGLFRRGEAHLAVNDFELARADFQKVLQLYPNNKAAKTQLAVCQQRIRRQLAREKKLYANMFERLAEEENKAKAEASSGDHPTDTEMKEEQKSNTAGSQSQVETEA
The data set is described as follows: Binding affinity to FKBP52 FK1 domain (1 to 148 residues) (unknown origin) by isothermal calorimetric analysis. A general note: Isothermal titration calorimetry measures the heat released or taken up as one component is titrated into another.

Data set [2] concerns the target T1, Peptidyl-prolyl cis-trans isomerase FKBP4. Put plainly: (§1) Binding affinity to FKBP52 FK1 domain (1 to 148 residues) (unknown origin) by Dansyl fluorescence based assay.
Data set [3] concerns the target T2, Peptidyl-prolyl cis-trans isomerase FKBP4 (Homo sapiens) (UniProt Q02790).
T2 sequence (whole entry): T1 sequence (Q02790 whole entry)
The data set is described as follows: Binding affinity to FKBP52 FK1 domain (1 to 148 residues) (unknown origin) assessed as blue shift at 10 uM by Dansyl fluorescence based assay.

Data set [4] concerns the target T2, Peptidyl-prolyl cis-trans isomerase FKBP4 (Homo sapiens). Put plainly: Binding affinity to FKBP52 FK1 domain (1 to 148 residues) (unknown origin) assessed as increase in fluorescence at 10 uM by Dansyl fluorescence based assay relative to control.
Data set [5] has the same target. Put plainly: Binding affinity to FKBP52 FK1 domain (1 to 148 residues) (unknown origin) at 10 uM in presence of FK506 by Dansyl fluorescence based assay.
For data set [6] the target is unchanged. Put plainly: Binding affinity to FKBP52 FK2 domain (167 to 253 residues) (unknown origin) in PBS at 10 uM by Dansyl fluorescence based assay relative to control.
In data set [7] the target is T1, Peptidyl-prolyl cis-trans isomerase FKBP4. Put plainly: Binding affinity to FKBP52 FK1 domain (1 to 148 residues) (unknown origin) in PBS by fluorescence spectroscopy.
The target of data set [8] is T2, Peptidyl-prolyl cis-trans isomerase FKBP4 (Homo sapiens). The data set is described as follows: Binding affinity to FKBP52 FK1 domain (1 to 148 residues) (unknown origin) in PBS assessed as quenching of Trp emission at 10 to 20 uM by fluorimetric analysis.
The target is the same in data set [9]. The data set is described as follows: Binding affinity to FKBP52 FK1 domain (1 to 148 residues) (unknown origin) in PBS assessed as induction of blue shift by measuring emission wavelength at 10 to 20 uM by fluorimetric analysis (reference value: 560 nm).
Data set [10] has the same target. Put plainly: Binding affinity to FKBP52 FK1 domain (1 to 148 residues) (unknown origin) in PBS at 20 uM in presence of one equivalent FK506 by FRET assay.
The target is the same in data set [11]. The data set is described as follows: Binding affinity to FKBP52 FK1 domain (1 to 148 residues) (unknown origin) at 10 uM by Dansyl fluorescence based assay.
Data set [12] can be described thus: Solubility of the compound. Type of data set: physicochemical.
The target of data set [13] is T2, Peptidyl-prolyl cis-trans isomerase FKBP4 (Homo sapiens). Described as §1.

Calls of active or inactive are those of the source. The calls are words filed in the database; no cut-off is given here. Square brackets hold non-standard residues; d marks the D form. Peptide text beside a SMILES is read from it. * marks the point of attachment. Pro(trans-4-F) = O=C(O)[C@@H]1C[C@@H](F)CN1; Dansyl = CN(C)c1cccc2c(S(=O)(=O)*)cccc12; Pro(cis-4-F) = O=C(O)[C@@H]1C[C@H](F)CN1; Hyp = O=C(O)[C@@H]1C[C@@H](O)CN1; hPhe = N[C@@H](CCc1ccccc1)C(=O)O; 2Pal = N[C@@H](Cc1ccccn1)C(=O)O; 3Pal = N[C@@H](Cc1cccnc1)C(=O)O; 4Pal = N[C@@H](Cc1ccncc1)C(=O)O; Tic = O=C(O)[C@@H]1Cc2ccccc2CN1; Tle = CC(C)(C)[C@H](N)C(=O)O; Pip = O=C(O)[C@@H]1CCCCN1; Ac5c = NC1(C(=O)O)CCCC1

On to `CN(C)c1cccc2c(S(=O)(=O)N3C[C@H](F)C[C@H]3C(=O)N[C@@H](CCc3ccccc3)C(=O)N[C@@H](CCCNC(=N)N)C(=O)O)cccc12` (Dansyl-[Pro(trans-4-F)]-[hPhe]-Arg-OH), for which binding in data set [1] was characterised by a dissociation constant (Kd) of 20 µM.

For the molecule `CN(C)c1cccc2c(S(=O)(=O)N3[C@H](C(=O)N[C@@H](CCc4ccccc4)C(=O)N[C@@H](CCCNC(=N)N)C(=O)O)CCC3(C)C)cccc12`, in [2], the equilibrium dissociation constant (Kd) (as a rule, the concentration at which binding is half-saturated) is more than 50 µM.

Molecule `CN(C)c1cccc2c(S(=O)(=O)N3CCCC[C@H]3C(=O)N[C@@H](Cc3cccnc3)C(=O)N[C@@H](CCCNC(=N)N)C(=O)O)cccc12` (Dansyl-[Pip]-[3Pal]-Arg-OH) yielded a Kd in data set [1] of 3 µM.

Take `CN(C)c1cccc2c(S(=O)(=O)N3C[C@H](O)C[C@H]3C(=O)N[C@@H](CCc3ccccc3)C(=O)N[C@@H](CCCNC(=N)N)C(=O)O)cccc12` (Dansyl-[Hyp]-[hPhe]-Arg-OH): the Kd in data set [1] is more than 50 µM.

The molecule `CN(C)c1cccc2c(S(=O)(=O)N3C[C@@H](F)C[C@H]3C(=O)N[C@@H](CCc3ccccc3)C(=O)N[C@@H](CCCNC(=N)N)C(=O)O)cccc12` (Dansyl-[Pro(cis-4-F)]-[hPhe]-Arg-OH) gave a Kd in data set [1] of 1.3 µM.

In data set [2], `CN(C)c1cccc2c(S(=O)(=O)N3Cc4ccccc4C[C@H]3C(=O)N[C@@H](CCc3ccccc3)C(=O)N[C@@H](CCCNC(=N)N)C(=O)O)cccc12` (Dansyl-[Tic]-[hPhe]-Arg-OH) came in with an equilibrium dissociation constant (Kd) of more than 50 µM.

As for `CN(C)c1cccc2c(S(=O)(=O)N3CCCC[C@H]3C(=O)N[C@@H](CCc3ccccc3)C(=O)N[C@@H](CCCNC(=N)N)C(=O)O)cccc12` (Dansyl-[Pip]-[hPhe]-Arg-OH), the Activity was found to be 30 nm in data set [3], 67% in [8] and 537 nm in data set [9]. The fold change (FC) in data set [4] worked out at 4. Also, the result in data set [5], in [6] and in data set [10] was inactive. In addition, the Kd is 4.6 µM in data set [7] and 1.6 µM in data set [1].

In data set [1], `CN(C)c1cccc2c(S(=O)(=O)N3CCCC[C@H]3C(=O)N[C@H](C(=O)N[C@@H](CCCNC(=N)N)C(=O)O)C(C)(C)C)cccc12` (Dansyl-[Pip]-[Tle]-Arg-OH) had an equilibrium dissociation constant (Kd) of 2.9 µM.

`CN(C)c1cccc2c(S(=O)(=O)N3CCCC[C@H]3C(=O)N[C@@H](Cc3c[nH]c4ccccc34)C(=O)N[C@@H](CCCNC(=N)N)C(=O)O)cccc12` (Dansyl-[Pip]-Trp-Arg-OH) registered a dissociation constant (Kd) in data set [2] of 20 µM.

Take `CN(C)c1cccc2c(S(=O)(=O)N3CCCC[C@H]3C(=O)N[C@@H](CCc3ccccc3)C(=O)O)cccc12.O=C(O)C(F)(F)F` (Dansyl-[Pip]-[hPhe]-OH): the result in data set [11] was inactive. Also, the solubility entry in [12] is “Insoluble”.

On to `CN(C)c1cccc2c(S(=O)(=O)N3CCC[C@H]3C(N)=O)cccc12`, for which, in data set [13], the outcome was inactive.

Molecule `CN(C)c1cccc2c(S(=O)(=O)N3CCCC[C@H]3C(=O)N[C@@H](Cc3ccccc3)C(=O)N[C@@H](CCCNC(=N)N)C(=O)O)cccc12` (Dansyl-[Pip]-Phe-Arg-OH) showed a dissociation constant (Kd) in data set [1] of 5.8 µM. That is a single-digit micromolar value.

In turn, `CN(C)c1cccc2c(S(=O)(=O)N3CCCC[C@H]3C(=O)N3CCCC[C@H]3C(=O)N[C@@H](CCCNC(=N)N)C(=O)O)cccc12` (Dansyl-[Pip]-[Pip]-Arg-OH) displayed an equilibrium dissociation constant (Kd) in [1] of 1.1 µM.

`CN(C)c1cccc2c(S(=O)(=O)N3CCC[C@@H]3C(=O)N[C@@H](CCc3ccccc3)C(=O)N[C@@H](CCCNC(=N)N)C(=O)O)cccc12` had an equilibrium dissociation constant (Kd) in [1] of more than 50 µM.

For `CCCCN(CC(=O)N[C@@H](CCc1ccccc1)C(=O)N[C@@H](CCCNC(=N)N)C(=O)O)S(=O)(=O)c1cccc2c(N(C)C)cccc12`, in data set [1], the Kd was more than 50 µM.

Turning to `CN(C)c1cccc2c(S(=O)(=O)N3CCCC[C@H]3C(=O)N3Cc4ccccc4C[C@H]3C(=O)N[C@@H](CCCNC(=N)N)C(=O)O)cccc12` (Dansyl-[Pip]-[Tic]-Arg-OH), the Kd in data set [1] was more than 50 µM.

Regarding `CN(C)c1cccc2c(S(=O)(=O)N3CCCC[C@H]3C(=O)NC3(C(=O)N[C@@H](CCCNC(=N)N)C(=O)O)CCCC3)cccc12` (Dansyl-[Pip]-[Ac5c]-Arg-OH), the affinity in [1], expressed as Kd, was 10 µM.

Molecule `CN(C)c1cccc2c(S(=O)(=O)N3CCCC[C@H]3C(=O)N[C@@H](Cc3ccccn3)C(=O)N[C@@H](CCCNC(=N)N)C(=O)O)cccc12` (Dansyl-[Pip]-[2Pal]-Arg-OH) showed a Kd in [1] of 3.5 µM.

Molecule `CN(C)c1cccc2c(S(=O)(=O)N3CCCC[C@H]3C(=O)N[C@@H](Cc3ccncc3)C(=O)N[C@@H](CCCNC(=N)N)C(=O)O)cccc12` (Dansyl-[Pip]-[4Pal]-Arg-OH) came in with a dissociation constant Kd in data set [1] of more than 50 µM.

On to `CN(C)c1cccc2c(S(=O)(=O)N3CCC[C@H]3C(=O)N[C@@H](CCc3ccccc3)C(=O)N[C@@H](CCCNC(=N)N)C(=O)O)cccc12`, for which the Kd in [1] is 5 µM.
